# Results as given in patent publication US11053234B2 (GlaxoSmithKline Intellectual Property Development Limited, priority 2016, dated 2021).
# Target: T1, haematopoietic prostaglandin D synthase (H-PGDS) (Homo sapiens, UniProt O60760)
# T1 construct: Full length human H-PGDS cDNA (Invitrogen Ultimate ORF 10H13026) was amplified by PCR; 6-His (N); TEV protease cleavage site (N); made in house; host or cells: E. coli BL21 (DE3*), vector pET22b+
# Assay: H-PGDS RapidFire high throughput mass spectrometry assay (conversion of PGH2 to PGD2)
# Assay type: biochemical
# Settings: 10 nM H-PGDS, PGH2 formed in situ by COX-2 from arachidonic acid
# How it was run: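 PGH2 substrate generated in situ by COX-2 (full-length human, FLAG-tagged, Sf9-expressed) from arachidonic acid at ˜10 μM, then converted by full-length human His-tagged H-PGDS (E. coli-expressed). RapidFire SPE–triple quadrupole MS measured PGD2 against PGF2α as substrate surrogate to give percent conversion.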
# T1 sequence (O60760 whole entry): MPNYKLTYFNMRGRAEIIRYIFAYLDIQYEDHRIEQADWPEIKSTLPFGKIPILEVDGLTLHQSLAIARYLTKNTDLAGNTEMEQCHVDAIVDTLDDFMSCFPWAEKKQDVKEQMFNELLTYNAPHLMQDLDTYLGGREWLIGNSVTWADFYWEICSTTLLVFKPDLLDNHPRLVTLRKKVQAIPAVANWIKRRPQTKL
row,SMILES,Potency Range (mean pIC50)
1,"CS(=O)(=O)C1CCC(NC(=O)N2CC(Oc3cccc4scnc34)C2)CC1 (stereo not shown) [Example 98, 3-(Benzo[d]thiazol-4-yloxy)-N-(4-(methylsulfonyl)cyclohexyl)azetidine-1-carboxamide]",** (pIC50 = 6.0-7.0)

# Same assay, conditions: 10 nM H-PGDS, PGH2 formed in situ by COX-2 from arachidonic acid; read-out: Potency Range (mean pIC50) (converted)
row,SMILES,IC50 [nM]
1,"O=C(NC1CN(c2nccc(Cl)n2)C1)[C@H]1C[C@H](Oc2cccc3scnc23)C1 [Example 74, (trans)-3-(Benzo[d]thiazol-4-yloxy)-N-(1-(4-chloropyrimidin-2-yl)azetidin-3-yl)cyclobutanecarboxamide]",10 to 79.4
2,"CN(C)c1ccnc(N2CC(NC(=O)[C@H]3C[C@H](Oc4cccc5scnc45)C3)C2)n1 [Example 75, (trans)-3-(Benzo[d]thiazol-4-yloxy)-N-(1-(4-(dimethylamino)pyrimidin-2-yl)azetidin-3-yl)cyclobutanecarboxamide]",10 to 79.4
3,"CN(C)c1nccc(N2CC(NC(=O)[C@H]3C[C@H](Oc4cccc5scnc45)C3)C2)n1 [Example 76, (trans)-3-(Benzo[d]thiazol-4-yloxy)-N-(1-(2-(dimethylamino)pyrimidin-4-yl)azetidin-3-yl)cyclobutanecarboxamide]",100 to 1000
4,"O=C(NC1CN(c2ncc(F)cn2)C1)[C@H]1C[C@H](Oc2cccc3scnc23)C1 [Example 78, (trans)-3-(Benzo[d]thiazol-4-yloxy)-N-(1-(5-fluoropyrimidin-2-yl)azetidin-3-yl)cyclobutanecarboxamide]",10 to 79.4
5,"Cc1nnc(NC(=O)[C@H]2C[C@H](Oc3cccc4scnc34)C2)o1 [Example 79, (trans)-3-(Benzo[d]thiazol-4-yloxy)-N-(5-methyl-1,3,4-oxadiazol-2-yl)cyclobutanecarboxamide]",100 to 1000
6,"O=C(NC1CN(c2ncccn2)C1)[C@H]1C[C@H](Oc2cccc3scnc23)C1 [Example 80, (trans)-3-(Benzo[d]thiazol-4-yloxy)-N-(1-(pyrimidin-2-yl)azetidin-3-yl)cyclobutanecarboxamide]",10 to 79.4
7,"O=C(NC1CN(c2ccccn2)C1)[C@H]1C[C@H](Oc2cccc3scnc23)C1 [Example 81, (trans)-3-(Benzo[d]thiazol-4-yloxy)-N-(1-(pyridin-2-yl)azetidin-3-yl)cyclobutanecarboxamide]",10 to 79.4
8,"O=C(NC1CCN(c2ccccn2)CC1)N1CC(Oc2cccc3scnc23)C1 [Example 88, 3-(Benzo[d]thiazol-4-yloxy)-N-(1-(pyridin-2-yl)piperidin-4-yl)azetidine-1-carboxamide]",10 to 79.4
9,"O=C(NC1CCN(C(=O)OCc2ccccc2)CC1)N1CC(Oc2cccc3scnc23)C1 [Example 89, Benzyl 4-(3-(benzo[d]thiazol-4-yloxy)azetidine-1-carboxamido)piperidine-1-carboxylate]",10 to 79.4
10,"O=C(NC1CCN(CC(F)(F)F)CC1)N1CC(Oc2cccc3scnc23)C1 [Example 91, 3-(Benzo[d]thiazol-4-yloxy)-N-(1-(2,2,2-trifluoroethyl)piperidin-4-yl)azetidine-1-carboxamide]",10 to 79.4
11,"CC(C)(O)[C@H]1CC[C@H](NC(=S)N2CC(Oc3cccc4scnc34)C2)CC1 [Example 95, 3-(Benzo[d]thiazol-4-yloxy)-N-((trans)-4-(2-hydroxypropan-2-yl)cyclohexyl) azetidine-1-carbothioamide]",10 to 79.4
12,"CC(C)(C)OC(=O)N1CCC(NC(=O)N2CC(Oc3cccc4scnc34)C2)CC1 [Example 96, tert-butyl 4-(3-(benzo[d]thiazol-4-yloxy)azetidine-1-carboxamido)piperidine-1-carboxylate]",100 to 1000
13,"CS(=O)(=O)N1CCC(NC(=O)N2CC(Oc3cccc4scnc34)C2)CC1 [Example 97, 3-(Benzo[d]thiazol-4-yloxy)-N-(1-(methylsulfonyl)piperidin-4-yl)azetidine-1-carboxamide]",100 to 1000
14,"O=C1NCC[C@@H]1NC(=O)N1CC(Oc2cccc3scnc23)C1 [Example 99, (S)-3-(Benzo[d]thiazol-4-yloxy)-N-(2-oxopyrrolidin-3-yl)azetidine-1-carboxamide]",100 to 1000
15,"O=C(N[C@H]1CC[C@H](N2CCCS2(=O)=O)CC1)N1CC(Oc2cccc3scnc23)C1 [Example 101, 3-(Benzo[d]thiazol-4-yloxy)-N-((trans)-4-(1,1-dioxidoisothiazolidin-2-yl)cyclohexyl)azetidine-1-carboxamide]",10 to 79.4
16,"CN1CCN([C@H]2CC[C@H](NC(=O)N3CC(Oc4cccc5scnc45)C3)CC2)C1=O [Example 102, 3-(Benzo[d]thiazol-4-yloxy)-N-((trans)-4-(3-methyl-2-oxoimidazolidin-1-yl)cyclohexyl)azetidine-1-carboxamide]",100 to 1000
17,"O=C(N[C@H]1CC[C@H](N2CCOC2=O)CC1)N1CC(Oc2cccc3scnc23)C1 [Example 103, 3-(Benzo[d]thiazol-4-yloxy)-N-((trans)-4-(2-oxooxazolidin-3-yl)cyclohexyl)azetidine-1-carboxamide]",100 to 1000

row,SMILES,IC50 [nM]
1,"C[C@]1(O)CC[C@H](NC(=O)N2CC(Oc3cccc4scnc34)C2)CC1 [Example 105, 3-(Benzo[d]thiazol-4-yloxy)-N-((trans)-4-hydroxy-4-methylcyclohexyl)azetidine-1-carboxamide]",100 to 1000
2,"CC(C)(O)CO[C@H]1CC[C@H](NC(=O)N2CC(Oc3cccc4scnc34)C2)CC1 [Example 106, 3-(Benzo[d]thiazol-4-yloxy)-N-((trans)-4-(2-hydroxy-2-methylpropoxy)cyclohexyl)azetidine-1-carboxamide]",10 to 79.4
3,"O=C(NC1CN(c2ncccn2)C1)N1CC(Oc2cccc3scnc23)C1 [Example 107, 3-(Benzo[d]thiazol-4-yloxy)-N-(1-(pyrimidin-2-yl)azetidin-3-yl)azetidine-1-carboxamide]",10 to 79.4
4,"CC(C)(O)[C@H]1CC[C@H](NC(=O)N2CC(Oc3cccc4scnc34)C2)CC1 [Example 108, 3-(Benzo[d]thiazol-4-yloxy)-N-((trans)-4-(2-hydroxypropan-2-yl)cyclohexyl)azetidine-1-carboxamide]",10 to 79.4
5,"CC(C)(O)[C@H]1CC[C@H](NC(=O)[C@H]2C[C@H](Oc3cccc4scnc34)C2)CC1 [Example 109, (trans)-3-(Benzo[d]thiazol-4-yloxy)-N-((trans)-4-(2-hydroxypropan-2-yl)cyclohexyl)cyclobutanecarboxamide]",10 to 79.4
6,"NC(=O)c1ccc(N2CC(NC(=O)[C@H]3C[C@H](Oc4cc(F)cc5scnc45)C3)C2)nc1 [Example 110, 6-(3-((trans)-3-(6-Fluorobenzo[d]thiazol-4-yloxy)cyclobutanecarboxamido)azetidin-1-yl)nicotinamide]",10 to 79.4
7,"Cc1ccc(N2CC(NC(=O)[C@H]3C[C@H](Oc4cc(F)cc5scnc45)C3)C2)[n+]([O-])c1 [Example 111, 2-(3-((trans)-3-((6-Fluorobenzo[d]thiazol-4-yl)oxy)cyclobutanecarboxamido)azetidin-1-yl)-5-methylpyridine 1-oxide]",100 to 1000
8,"Cc1cnc(N2CC(NC(=O)[C@H]3C[C@H](Oc4cc(F)cc5scnc45)C3)C2)nc1 [Example 112, (trans)-3-((6-Fluorobenzo[d]thiazol-4-yl)oxy)-N-(1-(5-methylpyrimidin-2-yl)azetidin-3-yl)cyclobutanecarboxamide]",10 to 79.4
9,"O=C(NC1CN(c2ncc(CO)cn2)C1)N1CC(Oc2cc(F)cc3scnc23)C1 [Example 113, 3-((6-Fluorobenzo[d]thiazol-4-yl)oxy)-N-(1-(5-(hydroxymethyl)pyrimidin-2-yl)azetidin-3-yl)azetidine-1-carboxamide]",10 to 79.4
10,"O=C(NC1CN(c2ncc(CO)cn2)C1)[C@H]1C[C@H](Oc2cc(F)cc3scnc23)C1 [Example 114, (trans)-3-((6-Fluorobenzo[d]thiazol-4-yl)oxy)-N-(1-(5-(hydroxymethyl)pyrimidin-2-yl)azetidin-3-yl)cyclobutanecarboxamide]",10 to 79.4
11,"COCCO[C@H]1CC[C@H](NC(=O)[C@H]2C[C@H](Oc3cc(F)cc4scnc34)C2)CC1 [Example 115, (trans)-3-((6-Fluorobenzo[d]thiazol-4-yl)oxy)-N-((trans)-4-(2-methoxyethoxy)cyclohexyl)cyclobutanecarboxamide]",100 to 1000
12,"O=C(NC1CCN(c2ncc(F)cn2)CC1)[C@H]1C[C@H](Oc2cc(F)cc3scnc23)C1 [Example 117, (trans)-3-((6-Fluorobenzo[d]thiazol-4-yl)oxy)-N-(1-(5-fluoropyrimidin-2-yl)piperidin-4-yl)cyclobutanecarboxamide]",10 to 79.4
13,"O=C(NC1CCN(c2ncc(F)cn2)CC1)N1CC(Oc2cc(F)cc3scnc23)C1 [Example 118, 3-((6-Fluorobenzo[d]thiazol-4-yl)oxy)-N-(1-(5-fluoropyrimidin-2-yl)piperidin-4-yl)azetidine-1-carboxamide]",10 to 79.4
14,"O=C(NC1CN(c2ccc(F)cn2)C1)N1CC(Oc2cc(F)cc3scnc23)C1 [Example 119, 3-((6-Fluorobenzo[d]thiazol-4-yl)oxy)-N-(1-(5-fluoropyridin-2-yl)azetidin-3-yl)azetidine-1-carboxamide]",10 to 79.4
15,"O=C(NC1CN(c2ccc(F)cn2)C1)[C@H]1C[C@H](Oc2cc(F)cc3scnc23)C1 [Example 120, (trans)-3-((6-Fluorobenzo[d]thiazol-4-yl)oxy)-N-(1-(5-fluoropyridin-2-yl)azetidin-3-yl)cyclobutanecarboxamide]",10 to 79.4
16,"Cc1nccc(N2CC(NC(=O)N3CC(Oc4cc(F)cc5scnc45)C3)C2)n1 [Example 122, 3-((6-Fluorobenzo[d]thiazol-4-yl)oxy)-N-(1-(2-methylpyrimidin-4-yl)azetidin-3-yl)azetidine-1-carboxamide]",10 to 79.4
